Experimental data published in patent US8283312B2, “Compositions and methods for modulating body weight and treating obesity-related disorders” (The Research Foundation of State University of New York, priority 2005, dated 2012).
Read-outs that look alike come from different tables or passages of the source. Where no end group is shown, it is not given here. The star is where a group is joined. Octanoyl = CCCCCCCC(=O)*

What was measured:
obese subjects = details: 12 obese subjects, as compared to 12 lean subjects; cited from earlier work
mice = details: cited from earlier work
RYGB rats = test: Food intake and body weight of RYGB rats given test substance via implanted intraperitoneal pump; format: in vivo, rat
Experimental: Daily Measurements: Postoperatively, daily body weight (BW) and caloric intake were measured each morning. The PF group was given the average food intake consumed the previous day by the RYGB group. Daily changes in BW, plotted every three day, are shown in FIG. 2 and the mean change per post-operative time periods are expressed in Table 1 using the same construct as earlier reported in our previous study (6).
A pump (Model 2002, Alza Corp. Palo Alto, Calif.) was implanted i.p. in each of 5 RYGB rats thirty days after RYGB. The pump was loaded with either the PYY receptor antagonist, B11E0246 (TOCRIS, Ellisville, Mo.), or a control solution (DMSO), and released its ingredient at the rate of about 8.3 μl/day (360 nm B11E0246/Kg/day). Food intake was measured as described above.
(§1) In a second experiment, a pump was implanted i.p. in each of 5 RYGB rats thirty days after RYGB. The pump was loaded with either ghrelin, or a control solution (DMSO), and released its ingredient at the rate of 8.3 μl/day (60 ng ghrelin/Kg/day). Food intake was measured as described above.
as §1, with “third” for “second”, “either a combination of the PYY receptor antagonist B11E0246 and” for “either”, “(DMSO). The pump” for “(DMSO), and”, “(360 nm B11E0246/Kg/day and 60” for “(60”

[1] = physiological levels of ghrelin (60 ng/Kg/day) alone, i.p. pump, FIG. 7

PYY(3-36): functional analog of PYY; peptide consisting of amino acid 3 to 36 of PYY
decrease of ad libitum food intake per meal (obese subjects): 33% | food intake (mice; freely feeding mice): unchanged | food intake (mice; single intraperitoneal injection, 24 h fasted mice): significant reduction of food intake for 24 h but not for 48 h

ghrelin: peptide of 28 amino acids, in which the serine 3 residue is n-octanoylated; gut hormone that stimulates food intake (GSS(Octanoyl)FLSPEHQRVQQRKESKKPPAKLQPR; UniProt Q9UBU3 24-51, looked up)
body weight (RYGB rats; [1]): did not significantly increase food intake or body weight | food intake (RYGB rats; [1]): did not significantly increase food intake or body weight

N=C(N)NCCC[C@H](NC(=O)CC1(CC(=O)N2CCN(C3c4ccccc4NC(=O)c4ccccc43)CC2)CCCC1)C(=O)NCCn1c(=O)n(-c2ccccc2)n(-c2ccccc2)c1=O (stereo partly drawn) [B11E0246]
daily and cumulative food intake (RYGB rats; i.p. pump implanted thirty days after RYGB, 360 nm B11E0246/Kg/day, vs control solution (DMSO), FIG. 6): increased daily and cumulative food intake
